Assay results reported in ChEMBL document CHEMBL1134210, “Synthesis and biological activities of potential metabolites of the non-nucleoside reverse transcriptase inhibitor efavirenz” (Bioorg Med Chem Lett, 2001).
pIC50: −log10 of the molar value.

Legend:
Nucleic Acid = assay: Inhibitory activity against RNA; format: functional
[1] = biological target: Human immunodeficiency virus type 1 reverse transcriptase (Human immunodeficiency virus 1, UniProt Q72547); assay: Inhibitory activity against HIV-1 reverse transcriptase

| IC90 (Nucleic Acid) [µM] | pIC50 [1] | Structure (SMILES) |
| --- | --- | --- |
| 0.0017 |  | O=C1Nc2ccc(Cl)cc2[C@@](C#CC2CC2)(C(F)(F)F)O1 |
| 0.063 | 5.63 | O=C1Nc2c(O)cc(Cl)cc2[C@@](C#CC2CC2)(C(F)(F)F)O1 |
| 0.422 | 5.61 | O=C1Nc2cc(O)c(Cl)cc2C(C#CC2CC2)(C(F)(F)F)O1 (stereo not drawn) |

Second part, the compound before the results:

| Structure (SMILES) | IC90 (Nucleic Acid) [µM] | pIC50 [1] |
| --- | --- | --- |
| O=C1Nc2ccc(Cl)cc2C(C#CC2(O)CC2)(C(F)(F)F)O1 (stereo not drawn) | 0.033 | 5.70 |
| O=C1Nc2c(O[C@@H]3O[C@H](C(=O)O)[C@@H](O)[C@H](O)[C@H]3O)cc(Cl)cc2[C@@](C#CC2CC2)(C(F)(F)F)O1 | > 0.985 | 5.02 |
| O=C1Nc2c(OS(=O)(=O)O)cc(Cl)cc2[C@@](C#CC2CC2)(C(F)(F)F)O1.c1ccncc1 | 1.01 | 4.90 |
| O=C1Nc2c(O)cc(Cl)cc2C(C#CC2CC2)(C(F)(F)F)O1 (single isomer, unassigned) | > 1.51 | < 4.90 |
